Measurements reported in patent publication US12544356B2, “Combination of a chromene compound and a second active agent” (EUCLISES PHARMACEUTICALS, INC., priority 2016, dated 2026).
One block for each compound: values may come before it.

Key:
[1] = system: HT-29 xenograft colon carcinoma model; assay: HT-29 xenograft tumor volume, Compound A01 vs celecoxib (Example 5); assay type: in vivo, CB17SCID mice; conditions: 10 mg/kg oral daily
Description: (§1) HT-29 cells were prepared and implanted by standard methods using the same procedure as Example 1.
(§2) 42 CB17SCID mice were implanted with 2.5×10^6 HT-29 cells.
(§3) Mouse weight and tumor volume measurements were taken on days 0, 3, 6, 9, 12, 15, 18, 21, and 22 following randomization. After 22 days dosing, the blood from each animal was collected at 2 hours and 6 hours post dose.

[2] = system: prostaglandin E2 (PGE2); assay: CT26 tumoral PGE-2 (Example 6); assay type: in vivo, Female Harlan Balb/c mice (BALB/cAnNHsd); conditions: 10 mg/kg (Group 8)
Description: (§4) CT26 murine colon carcinoma cells were prepared as in Example 2. Female Harlan Balb/c mice (BALB/cAnNHsd) were inoculated with 5×10^5 CT26 cells suspended in PBS (200 μL) subcutaneously high in the axilla (just under the fore limb). All mice were sorted into study groups based on caliper measurement estimation of tumor burden on Day 8 when the mean tumor burden for all animals was approximately 79 mm^3 (range of group means, 75-83 mm^3).

[3] = system: CT26.WT murine colon carcinomas; assay: CT26 tumor volume, Compound A01 vs celecoxib (Example 6); assay type: in vivo, Female Harlan Balb/c mice (BALB/cAnNHsd)
Description: as §4

[4] = system: PGE-2; assay: Tumoral PGE-2 in HT-29 tumors (Example 5); assay type: in vivo, CB17SCID mice; conditions: HT-29 tumor, day 24; 10 mg/kg
Description: as §1, §2, §3

[5] = Body weight in HT-29 xenograft study (Example 1); assay type: in vivo, CB17SCID male mice; conditions: erlotinib 50 mg/kg oral daily
Description: (§5) 48 CB17SCID male mice were implanted with 2.5×10^6 HT29 cells. Growth of the tumor was calculated for each animal using a caliper and the equation: V=π×ab^2/6.
(§6) Mouse weight and tumor volume measurements were taken on days 0, 3, 6, 9, 12, 15, 18, 21, and 22 following randomization.

[6] = Plasma concentration of Compound A01 and erlotinib (Example 1); assay type: in vivo, CB17SCID male mice; conditions: male, CB17SCID, mouse, plasma, oral, 50 mg/kg
Description: as §5, §6

[7] = system: PGE2; assay: Intratumoral concentration of PGE2 in HT-29 tumors (Example 1); assay type: in vivo, CB17SCID male mice; conditions: HT-29 tumor, day 24; erlotinib 50 mg/kg
Description: as §5, §6

[8] = Intratumoral concentration of Compound A01 and erlotinib (Example 1); assay type: in vivo, CB17SCID male mice; conditions: male, CB17SCID, mouse, tumor (HT-29 xenograft), oral, 50 mg/kg
Description: as §5, §6

[9] = system: HT-29 xenograft murine colon carcinoma model; assay: HT-29 xenograft tumor growth, Compound A01 with erlotinib (Example 1); assay type: in vivo, CB17SCID male mice; conditions: for Tumor Volume: erlotinib 50 mg/kg oral daily
Description: HT-29 cells were cultured in medium for one week. Following digestion cells were centrifuged for 3-5 minutes at 800-1500 rpm. Cells were washed with PBS and centrifuged again under the same condition. Cells were then suspended in PBS to a final concentration of […]. 200 μL of the HT-29 cell suspension were subcutaneously injected into the mice left forelimb axillary (2.5×10^6 HT-29 cells per mouse).
as §5, §6

SMILES: Cc1ccc(-c2cc(C(F)(F)F)nn2-c2ccc(S(N)(=O)=O)cc2)cc1 [Celecoxib, celecoxib, reference compound]
Tumor Volume ([1]; Day 0): 67.9 mm^3 | Tumor Volume ([1]; Day 3): 81.8 mm^3 | Tumor Volume ([1]; Day 6): 143.4 mm^3 | Tumor Volume ([1]; Day 9): 244.5 mm^3 | Tumor Volume ([1]; Day 12): 285.5 mm^3 | Tumor Volume ([1]; Day 15): 380.9 mm^3 | Tumor Volume ([1]; Day 18): 541.2 mm^3 | Tumor Volume ([1]; Day 21): 736.1 mm^3 | Tumor Volume ([1]; Day 22): 803.4 mm^3 | Mean PGE-2 Concentration (CT26 tumoral) [2]: 1140 ng/g | CT26 Tumor Volume ([3]; Day 8, 10 mg/kg): 79 ± 4 mm^3 | CT26 Tumor Volume ([3]; Day 8, 30 mg/kg): 76 ± 5 mm^3 | CT26 Tumor Volume ([3]; Day 10, 10 mg/kg): 134 ± 11 mm^3 | CT26 Tumor Volume ([3]; Day 10, 30 mg/kg): 131 ± 17 mm^3 | CT26 Tumor Volume ([3]; Day 13, 10 mg/kg): 369 ± 42 mm^3 | CT26 Tumor Volume ([3]; Day 13, 30 mg/kg): 415 ± 66 mm^3 | CT26 Tumor Volume ([3]; Day 15, 10 mg/kg): 594 ± 84 mm^3 | CT26 Tumor Volume ([3]; Day 15, 30 mg/kg): 685 ± 93 mm^3 | CT26 Tumor Volume ([3]; Day 17, 10 mg/kg): 904 ± 92 mm^3 | CT26 Tumor Volume ([3]; Day 17, 30 mg/kg): 1046 ± 144 mm^3 | Mean PGE-2 (tumoral) [4]: 233.3 ± 267.2 ng/g

concentration at 2 h [6]: 3340 ± 1590 ng/mL | concentration at 6 h [6]: 1260 ± 520 ng/mL | concentration at 24 day [8]: < 80000 ng/g
SMILES: C#Cc1cccc(Nc2ncnc3cc(OCCOC)c(OCCOC)cc23)c1 [Erlotinib, erlotinib, reference compound]
Body weight ([5]; Day 0): 22.4 g | Body weight ([5]; Day 3): 22.4 g | Body weight ([5]; Day 15): 20.5 g | Body weight ([5]; Day 21): 21.0 g | Intratumoral concentration of PGE2 (mean ± SD) [7]: 160.6 ± 89.5 µg/g | Tumor Volume ([9]; Day 0): 73.7 mm^3 | Tumor Volume ([9]; Day 3): 156.9 mm^3 | Tumor Volume ([9]; Day 6): 192.0 mm^3 | Tumor Volume ([9]; Day 9): 241.0 mm^3 | Tumor Volume ([9]; Day 12): 299.1 mm^3 | Tumor Volume ([9]; Day 15): 394.5 mm^3 | Tumor Volume ([9]; Day 18): 641.1 mm^3 | Tumor Volume ([9]; Day 21): 691.4 mm^3 | Tumor Volume ([9]; Day 22): 774.8 mm^3 | suppression of tumor growth compared to vehicle ([9]; erlotinib alone (50 mg/kg)): 38%
